According to patent publication US8299056B2 (Signal Pharmaceuticals, LLC, priority 2008, dated 2012):

These molecules were tested against T1, Syk (Homo sapiens, UniProt P43405) (assay: Syk HTRF assay). Conditions: IC50 activity level, read-out: Activity Level.
T1 construct: purchased Carna Biosciences
Assay type: biochemical
Procedure, shortened: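 Read-out is the 665 nm/615 nm time-resolved fluorescence ratio after EDTA stop and Eu-anti-phosphotyrosine plus streptavidin-DyLight 647 detection. Reaction ran 1 h at room temperature with start mix of 87.5 μM ATP and 80 nM substrate peptide in pH 7.6 HEPES/MgCl2 buffer.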
An IC50 of 500 to 1000 nM was found for `NCCCCc1cccc2nc(Nc3ccccc3)nn12` [Example 505, 5-(4-aminobutyl)-N-phenyl-[1,2,4]triazolo[1,5-a]pyridin-2-amine] in this work.
An IC50 of 1000 to 10000 nM was found for `NC(=O)c1cc(-c2cccc3nc(Nc4ccc(F)cc4)nn23)ccn1` [Example 416, 4-(2-(4-fluorophenylamino)-[1,2,4]triazolo[1,5-a]pyridin-5-yl)picolinamide] in this work.
An IC50 of 250 to 500 nM was found for `CC(CO)Cc1cccc2nc(Nc3ccccc3)nn12` (stereo in doubt) [Example 480, (S)-2-methyl-3-(2-(phenylamino)-[1,2,4]triazolo[1,5-a]pyridin-5-yl)propan-1-ol] in this work.
An IC50 of 0.005 to 250 nM was found for `OCCNc1cc(-c2cccc3nc(Nc4ccccc4)nn23)ccn1` [Example 443, 2-(4-(2-(phenylamino)-[1,2,4]triazolo[1,5-a]pyridin-5-yl)pyridin-2-ylamino)ethanol] in this work.
An IC50 of 500 to 1000 nM was found for `CC(C)Nc1cccc2nc(Nc3ccccc3)nn12` [Example 530, N^5-isopropyl-N^2-phenyl-[1,2,4]triazolo[1,5-a]pyrridine-2,5-diamine] in this work.
An IC50 of 1000 to 10000 nM was found for `Cc1n[nH]c2ncc(Nc3nc4cccc(NC5CCOCC5)n4n3)cc12` [Example 539, N^2-(3-methyl-1H-pyrazolo[3,4-b]pyridin-5-yl)-N^5-(tetrahydro-2H-pyran-4-yl)-[1,2,4]triazolo[1,5-a]pyridin-2,5-diamine] in this work.
An IC50 of 250 to 500 nM was found for `c1ccc(Nc2nc3cccc(CC4CCCNC4)n3n2)cc1` (centres unmarked) [Example 478, N-phenyl-5-(piperidin-3-ylmethyl)-[1,2,4]triazolo[1,5-a]pyridin-2-amine] in this work.
An IC50 of 1000 to 10000 nM was found for `CN(C)c1cccc2nc(Nc3ccccc3)nn12` [Example 477, N^5,N^5-dimethyl-N^2-phenyl-[1,2,4]triazolo[1,5-a]pyridin-2,5-diamine] in this work.
An IC50 of 0.005 to 250 nM was found for `c1cc(N[C@@H]2CCCNC2)n2nc(Nc3ccc4cn[nH]c4c3)nc2c1` [Example 467, (R)-N^2-(1H-indazol-6-yl)-N^5-(piperidin-3-yl)-[1,2,4]triazolo[1,5-a]pyridin-2,5-diamine] in this work.
An IC50 of 1000 to 10000 nM was found for `C[C@H](Cc1cccc2nc(Nc3ccccc3)nn12)C(N)=O` [Example 460, (R)-2-methyl-3-(2-(phenylamino)-[1,2,4]triazolo[1,5-a]pyridin-5-yl)propanamide] in this work.
An IC50 of 1000 to 10000 nM was found for `OC1CCC(Nc2cccc3nc(Nc4ccccc4)nn23)CC1` (stereo in doubt) [Example 470, trans-4-(2-(phenylamino)-[1,2,4]triazolo[1,5-a]pyridin-5-ylamino)cyclohexanol] in this work.

Same assay, conditions: activity levels A-D, read-out: Activity Level (IC50 in the Syk HTRF assay)
An IC50 of 0.005 to 250 nM was found for `Cc1n[nH]c2cc(Nc3nc4cccc(CN5CCNC(=O)C5)n4n3)ccc12` [Example 235, 4-((2-(3-methyl-1H-indazol-6-ylamino)-[1,2,4]triazolo[1,5-a]pyridin-5-yl)methyl)piperazin-2-one] in this work.
An IC50 of 0.005 to 250 nM was found for `Cc1nn(C)c2cc(Nc3nc4cccc(N[C@H]5CC[C@@H](O)CC5)n4n3)ccc12` [Example 218, cis-4-(2-(1,3-dimethyl-1H-indazol-6-ylamino)-[1,2,4]triazolo[1,5-a]pyridin-5-ylamino)cyclohexanol] in this work.
An IC50 of 0.005 to 250 nM was found for `FC(F)(F)c1ccc(Nc2nc3cccc(-c4cnc5nc[nH]c5c4)n3n2)cc1` [Example 380, 5-(1H-imidazo[4,5-b]pyridin-6-yl)-N-(4-(trifluoromethyl)phenyl)-[1,2,4]triazolo[1,5-a]pyridin-2-amine] in this work.
An IC50 of 1000 to 10000 nM was found for `CC(C)(CO)Nc1cccc2nc(Nc3ccc(C(F)(F)F)cc3)nn12` [Example 358, 2-methyl-2-(2-(4-(trifluoromethyl)phenylamino)-[1,2,4]triazolo[1,5-a]pyridin-5-ylamino)propan-1-ol] in this work.
An IC50 of 0.005 to 250 nM was found for `O=C1CN(Cc2cccc3nc(Nc4cnc5[nH]ccc5c4)nn23)CCN1` [Example 229, 4-((2-(1H-pyrrolo[2,3-b]pyridin-5-ylamino)-[1,2,4]triazolo[1,5-a]pyridin-5-yl)methyl)piperazin-2-one] in this work.
An IC50 of 500 to 1000 nM was found for `O[C@@H]1CCCN(c2cccc3nc(Nc4ccc(C(F)(F)F)cc4)nn23)C1` [Example 309, (R)-1-(2-(4-(trifluoromethyl)phenylamino)-[1,2,4]triazolo[1.5-a]pyridin-5-yl)piperidin-3-ol] in this work.
An IC50 of 1000 to 10000 nM was found for `CNC(=O)c1ccc(Nc2nc3cccc(OC4CCNCC4)n3n2)cc1` [Example 284, N-methyl-4-(5-(piperidin-4-yloxy)-[1,2,4]triazolo[1,5-a]pyridin-2-ylamino)benzamide] in this work.
An IC50 of 1000 to 10000 nM was found for `CNC(=O)c1ccc(Nc2nc3cccc(-n4ccnc4)n3n2)cc1` [Example 241, 4-(5-(1H-imidazol-1-yl)-[1,2,4]triazolo[1,5-a]pyridin-2-ylamino)-N-methylbenzamide] in this work.
An IC50 of 250 to 500 nM was found for `O[C@H]1CCCN(c2cccc3nc(Nc4ccc(C(F)(F)F)cc4)nn23)C1` [Example 310, (S)-1-(2-(4-(trifluoromethyl)phenylamino)-[1,2,4]triazolo[1,5-a]pyridin-5-yl)piperidin-3-ol] in this work.
An IC50 of 500 to 1000 nM was found for `Cc1cc(Nc2nc3cccc(N[C@H]4CC[C@@H](O)CC4)n3n2)ccn1` [Example 367, cis-4-(2-(2-methylpyridin-4-ylamino)-[1,2,4]triazolo[1,5-a]pyridin-5-ylamino)cyclohexanol] in this work.
An IC50 of 1000 to 10000 nM was found for `O[C@@H]1CCC[C@@H](Nc2cccc3nc(Nc4ccc(C(F)(F)F)cc4)nn23)C1` (single isomer, unassigned; enantiomer 2) [Example 224, cis-3-(2-(4-(trifluoromethyl)phenylamino)-[1,2,4]triazolo[1,5-a]pyridin-5-ylamino)cyclohexanol (enantiomer 2)] in this work.
An IC50 of 1000 to 10000 nM was found for `FC(F)(F)c1ccc(Nc2nc3cccc(N4CCCC4)n3n2)cc1` [Example 307, 5-(pyrrolidin-1-yl)-N-(4-(trifluoromethyl)phenyl)-[1,2,4]triazolo[1,5-a]pyridin-2-amine] in this work.
An IC50 of 500 to 1000 nM was found for `O[C@@H]1CCC[C@H]1Nc1cc(-c2cccc3nc(Nc4ccc(C(F)(F)F)cc4)nn23)ccn1` [Example 246, (1R,2R)-2-(4-(2-(4-(trifluoromethyl)phenylamino)-[1,2,4]triazolo[1,5-a]pyridin-5-yl)pyridin-2-ylamino)cyclopentanol] in this work.
An IC50 of 500 to 1000 nM was found for `CC1CNC(=O)CN1Cc1cccc2nc(Nc3ccc(C(F)(F)F)cc3)nn12` (centres unmarked) [Example 258, 5-methyl-4-((2-(4-(trifluoromethyl)phenylamino)-[1,2,4]triazolo[1,5-a]pyridin-5-yl)methyl)piperazin-2-one] in this work.

Same assay, conditions: read-out: Activity Level (Syk HTRF assay IC50)
An IC50 of 0.005 to 250 nM was found for `O=C1CN(Cc2cccc3nc(Nc4ccc5c(C(F)(F)F)n[nH]c5c4)nn23)CCN1` [Example 155, 4-((2-(3-(trifluoromethyl)-1H-indazol-6-ylamino)-[1,2,4]triazolo[1,5-a]pyridin-5-yl)methyl)piperazin-2-one] in this work.
An IC50 of 0.005 to 250 nM was found for `Cn1cnc2ccc(Nc3nc4cccc(-c5cccc(F)c5)n4n3)cc21` [compound 4] in this work.
An IC50 of 1000 to 10000 nM was found for `CN1C(=O)Cc2ccc(Nc3nc4cccc(CC5CCOCC5)n4n3)cc21` [compound 118, 1-methyl-6-(5-((tetrahydro-2H-pyran-4-yl)methyl)-[1,2,4]triazolo[1,5-a]pyridin-2-ylamino)indolin-2-one] in this work.
An IC50 of 0.005 to 250 nM was found for `Cc1nc2cc(Nc3nc4cccc(-c5ccccc5)n4n3)ccc2[nH]1` [compound 46, N-(2-methyl-1H-benzo[d]imidazol-5-yl)-5-phenyl-[1,2,4]triazolo[1,5-a]pyridin-2-amine] in this work.
An IC50 of 0.005 to 250 nM was found for `Cc1n[nH]c2cc(Nc3nc4cccc(N(C)C5CCOCC5)n4n3)ccc12` [Example 189, N^5-methyl-N^2-(3-methyl-1H-indazol-6-yl)-N^5-(tetrahydro-2H-pyran-4-yl)-[1,2,4]triazolo[1,5-a]pyridin-2,5-diamine] in this work.
An IC50 of 0.005 to 250 nM was found for `Cc1n[nH]c2cc(Nc3nc4cccc(Cc5cc[nH]c(=O)c5)n4n3)ccc12` [Example 183, 4-((2-(3-methyl-1H-indazol-6-ylamino)-[1,2,4]triazolo[1,5-a]pyridin-5-yl)methyl)pyridin-2(1H)-one] in this work.
An IC50 of 1000 to 10000 nM was found for `CN1C(=O)Cc2ccc(Nc3nc4cccc(NC5CCOCC5)n4n3)cc21` [compound 119, 1-methyl-6-(5-(tetrahydro-2H-pyran-4-ylamino)-[1,2,4]triazolo[1,5-a]pyridin-2-ylamino)indolin-2-one] in this work.
An IC50 of 0.005 to 250 nM was found for `CNC(=O)c1ccc(Nc2nc3cccc(-c4cccc(O)c4)n3n2)cc1` [compound 36, 4-(5-(3-hydroxyphenyl)-[1,2,4]triazolo[1,5-a]pyridin-2-ylamino)-N-methylbenzamide] in this work.
An IC50 of 0.005 to 250 nM was found for `c1ccc(-c2cccc3nc(Nc4ccc(N5CCOCC5)nc4)nn23)cc1` [compound 41, N-(6-morpholinopyridin-3-yl)-5-phenyl-[1,2,4]triazolo[1,5-a]pyridin-2-amine] in this work.
An IC50 of 0.005 to 250 nM was found for `O[C@H]1CC[C@@H](Nc2cccc3nc(Nc4cnc5cn[nH]c5c4)nn23)CC1` [compound 107] in this work.
An IC50 of 0.005 to 250 nM was found for `Nc1n[nH]c2cc(Nc3nc4cccc(-c5ccccc5)n4n3)ccc12` [compound 57] in this work.
An IC50 of 1000 to 10000 nM was found for `CN1Cc2cc(Nc3nc4cccc(NC5CCOCC5)n4n3)ccc2C1=O` [Example 144, 2-methyl-5-(5-(tetrahydro-2H-pyran-4-ylamino)-[1,2,4]triazolo[1,5-a]pyridin-2-ylamino)isoinoldin-1-one] in this work.
An IC50 of 0.005 to 250 nM was found for `Cc1cc(Nc2nc3cccc(CC4CCOCC4)n3n2)cc2c1cnn2C` [Example 147, N-(1,4-dimethyl-1H-indazol-6-yl)-5-((tetrahydro-2H-pyran-4-yl)methyl)-[1,2,4]triazolo[1,5-a]pyridin-2-amine] in this work.
An IC50 of 500 to 1000 nM was found for `CC1(C)NC(=O)c2cc(Nc3nc4cccc(NC5CCOCC5)n4n3)ccc21` [compound 128, 3,3-dimethyl-6-(5-(tetrahydro-2H-pyran-4-ylamino)-[1,2,4]triazolo[1,5-a]pyridin-2-ylamino)isoindolin-1-one] in this work.
An IC50 of 0.005 to 250 nM was found for `NC(=O)c1ccc(Nc2nc3cccc(-c4ccccc4)n3n2)cc1` [Example 88] in this work.
An IC50 of 0.005 to 250 nM was found for `Cn1ncc2ccc(Nc3nc4cccc(NC5CCOCC5)n4n3)cc21` [Example 161, N^2-(1-methyl-1H-indazol-6-yl)-N^5-(tetrahydro-2H-pyran-4-yl)-[1,2,4]triazolo[1,5-a]pyridin-2,5-diamine] in this work.
